# Assay results from the supplement of paper PMC11061612.
# Key:
# U-2-OS (Osteosarcoma) [1] = experiment: Bliss excess, mean over the matrix (fraction); higher = more synergy
# Summary of the method: (§1)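 After 24 hours at 37°C and 5% CO2 in 1536-well plates, cells in DMEM/F12 or RPMI plus 10% FBS received two-drug dose matrices for 72 hours. Viability came from CellTiter-Glo 2.0 luminescence and was scaled as inhibition, anchored at 0 by vehicle wells and at 1 by blank wells. Combination Emax is taken as the second-highest inhibition in the matrix, and Bliss excess as the observed combination effect less EA + EB − EA·EB, with EA and EB the single-agent effects.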
# IGR-37 (Melanoma) [2] = experiment: as above
# Summary of the method: as §1
# [3] = test system: NCI-H1581 (Non-Small Cell Lung Carcinoma); experiment: as above
# Summary of the method: as §1
# [4] = test system: PANC-10-05 (Pancreatic Carcinoma); experiment: as above
# Summary of the method: as §1
# [5] = test system: TT (Thyroid Gland Carcinoma); experiment: as above
# Summary of the method: as §1
# [6] = test system: CCK-81 (Colorectal Carcinoma); experiment: as above
# Summary of the method: as §1
# NY (Osteosarcoma) [7] = experiment: as above
# Summary of the method: as §1
# [8] = test system: CAPAN-2 (Pancreatic Carcinoma); experiment: as above
# Summary of the method: as §1
# [9] = test system: ONS-76 (Other Solid Carcinomas); experiment: as above
# Summary of the method: as §1
# [10] = test system: ECC10 (Gastric Carcinoma); experiment: as above
# Summary of the method: as §1
# [11] = test system: BICR22 (Oral Cavity Carcinoma); experiment: as above
# Summary of the method: as §1
# [12] = test system: NCI-H1666 (Lung Adenocarcinoma); experiment: as above
# Summary of the method: as §1
# [13] = test system: NCI-H64 (Small Cell Lung Carcinoma); experiment: as above
# Summary of the method: as §1
# [14] = test system: COLO-320-HSR (Colorectal Carcinoma); experiment: as above
# Summary of the method: as §1
# FU97 (Gastric Carcinoma) [15] = experiment: as above
# Summary of the method: as §1
# [16] = test system: VCaP (Prostate Carcinoma); experiment: as above
# Summary of the method: as §1
# [17] = test system: NCI-H2066 (Squamous Cell Lung Carcinoma); experiment: as above
# Summary of the method: as §1
# [18] = test system: KARPAS-422 (B-Cell Non-Hodgkin's Lymphoma); experiment: as above
# Summary of the method: as §1
# U-2-OS (Osteosarcoma) [19] = experiment: combination Emax (second highest fraction inhibited in the dose matrix, 72 h); higher = more inhibition; extreme values may be limits of the assay
# Summary of the method: as §1
# IGR-37 (Melanoma) [20] = experiment: as above
# Summary of the method: as §1
# [21] = test system: NCI-H1581 (Non-Small Cell Lung Carcinoma); experiment: as above
# Summary of the method: as §1
# [22] = test system: PANC-10-05 (Pancreatic Carcinoma); experiment: as above
# Summary of the method: as §1
# [23] = test system: TT (Thyroid Gland Carcinoma); experiment: as above
# Summary of the method: as §1
# [24] = test system: CCK-81 (Colorectal Carcinoma); experiment: as above
# Summary of the method: as §1
# NY (Osteosarcoma) [25] = experiment: as above
# Summary of the method: as §1
# [26] = test system: CAPAN-2 (Pancreatic Carcinoma); experiment: as above
# Summary of the method: as §1
# [27] = test system: ONS-76 (Other Solid Carcinomas); experiment: as above
# Summary of the method: as §1
# [28] = test system: ECC10 (Gastric Carcinoma); experiment: as above
# Summary of the method: as §1
# [29] = test system: BICR22 (Oral Cavity Carcinoma); experiment: as above
# Summary of the method: as §1
# [30] = test system: NCI-H64 (Small Cell Lung Carcinoma); experiment: as above
# Summary of the method: as §1
# [31] = test system: COLO-320-HSR (Colorectal Carcinoma); experiment: as above
# Summary of the method: as §1
# FU97 (Gastric Carcinoma) [32] = experiment: as above
# Summary of the method: as §1
# [33] = test system: VCaP (Prostate Carcinoma); experiment: as above
# Summary of the method: as §1
# [34] = test system: NCI-H2066 (Squamous Cell Lung Carcinoma); experiment: as above
# Summary of the method: as §1
# [35] = test system: KARPAS-422 (B-Cell Non-Hodgkin's Lymphoma); experiment: as above
# Summary of the method: as §1
# [36] = test system: NCI-H1666 (Lung Adenocarcinoma); experiment: as above
# Summary of the method: as §1
# 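Throughout, for Bliss excess, mean over the matrix: after 72 h of two-drug dosing.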
SMILES,Bliss excess (U-2-OS (Osteosarcoma) [1]),Bliss excess (IGR-37 (Melanoma) [2]),Bliss excess [3],Bliss excess [4],Bliss excess [5],Bliss excess [6],Bliss excess (NY (Osteosarcoma) [7]),Bliss excess [8],Bliss excess [9],Bliss excess [10],Bliss excess [11],Bliss excess [12],Bliss excess [13],Bliss excess [14],Bliss excess (FU97 (Gastric Carcinoma) [15]),Bliss excess [16],Bliss excess [17],Bliss excess [18],combination Emax (U-2-OS (Osteosarcoma) [19]),combination Emax (IGR-37 (Melanoma) [20]),combination Emax [21],combination Emax [22],combination Emax [23],combination Emax [24],combination Emax (NY (Osteosarcoma) [25]),combination Emax [26],combination Emax [27],combination Emax [28],combination Emax [29],combination Emax [30],combination Emax [31],combination Emax (FU97 (Gastric Carcinoma) [32]),combination Emax [33],combination Emax [34],combination Emax [35],combination Emax [36]
"N#Cc1cnc(Nc2cc(NC[C@H]3CNCCO3)c(C(F)(F)F)cn2)cn1 [SRA737] + CCc1c2c(nc3ccc(O)cc13)-c1cc3c(c(=O)n1C2)COC(=O)[C@]3(O)CC [SN-38] (first compound max 10 µM, 7x7, partner max 0.3 µM)",-0.0473,-0.111,0.135,-0.006,-0.0712,-0.067,-0.0729,-0.0041,-0.0554,-0.0016,-0.0185,-0.0679,-0.0347,0.112,-0.0739,-0.0295,-0.0192,0.0019,0.61,0.818,0.86,0.86,0.883,0.78,0.928,0.25,0.876,0.973,0.893,0.818,0.657,0.408,0.59,0.345,0.91,–
"C=CCn1c(=O)c2cnc(Nc3ccc(N4CCN(C)CC4)cc3)nc2n1-c1cccc(C(C)(C)O)n1 [AZD1775] + CCc1c2c(nc3ccc(O)cc13)-c1cc3c(c(=O)n1C2)COC(=O)[C@]3(O)CC [SN-38] (first compound max 1 µM, partner max 0.3 µM)",-0.0179,-0.107,0.0811,-0.029,-0.0838,-0.0839,-0.0575,-0.0501,-0.0392,-0.0663,–,-0.0452,-0.017,-0.0294,-0.0007,-0.108,-0.0821,-0.0699,0.588,0.823,0.965,0.851,0.941,0.845,0.902,0.415,0.835,0.995,–,0.887,0.756,0.391,0.67,0.304,0.953,0.539
"Cc1nc(-c2cn3c(n2)-c2ccc(-c4cnn(C(C)(C)C(N)=O)c4)cc2OCC3)n(C(C)C)n1 [Taselisib] + O=C(Nc1ccc2[nH]nc(-c3ccncc3)c2c1)[C@@H]1CCN(CC(=O)N2CCN(c3ccc(-c4ncccn4)cc3)CC2)C1 [SCH772984] (first compound max 10 µM, 7x7, partner max 5 µM)",0.112,0.0732,0.178,0.0166,0.106,0.0528,0.0687,0.0241,0.0608,0.124,0.116,0.0878,0.0028,-0.0441,0.0139,-0.0098,0.0133,0.0406,0.993,0.938,0.635,0.809,0.568,0.988,0.564,0.521,0.976,1,0.966,0.377,0.419,0.404,0.587,0.681,0.554,0.881
"CN(CCO)CC[C@H](CSc1ccccc1)Nc1ccc(S(=O)(=O)NC(=O)c2ccc(N3CCC([C@@H](O)c4ccccc4-c4ccc(Cl)cc4)CC3)cc2)cc1S(=O)(=O)C(F)(F)F [AZD4320] + CS(=O)(=O)CCNCc1ccc(-c2ccc3ncnc(Nc4ccc(OCc5cccc(F)c5)c(Cl)c4)c3c2)o1 [Lapatinib] (first compound max 1 µM, 7x7, partner max 10 µM)",0.0382,-0.0519,-0.0047,-0.021,0.012,0.0767,0.0035,0.0523,0.0068,0.0318,0.0806,0.0943,0.0352,-0.0638,-0.0253,0.0003,-0.0109,0.0596,0.571,0.282,0.398,0.72,0.363,1,0.564,0.947,0.839,1,0.958,0.995,0.261,–,0.434,0.917,0.985,–
"C[C@@H]1COCCN1c1cc(C2([S@](C)(=N)=O)CC2)nc(-c2ccnc3[nH]ccc23)n1 [AZD6738] + Nc1ccn([C@@H]2O[C@H](CO)[C@@H](O)C2(F)F)c(=O)n1 [Gemcitabine] (first compound max 10 µM, 7x7, partner max 0.3 µM)",0.107,-0.0837,0.128,0.0682,0.0446,0.0606,0.0071,0.018,-0.0644,–,-0.007,-0.0247,0.0857,0.0818,0.0306,0.0509,-0.0525,-0.0523,0.83,0.794,0.975,0.631,0.526,0.888,0.777,0.313,0.817,0.866,0.958,0.936,0.852,0.398,0.837,0.368,0.749,0.553
